Measured values published in PubChem BioAssay AID1918952 (Molecular Pharmacology Branch, DTP, NCI, 2023).

Test system: LG0703-F948-PDC complex spheroid viability
Assay: Anticancer human tumor LG0703-F948-PDC patient-derived lung adenocarcinoma cell line growth inhibition
Details: for IC50: curve of first compound; for viability, T/C: stronger effect = lower value
How it was run: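 Multicellular complex spheroids of tumor cells with human endothelial cells (HUVEC) and mesenchymal stem cells; the LSD1 inhibitor iadademstat was combined with standard-of-care or investigational agents. Top concentration at or near clinical Cmax, half-log dilutions; final DMSO ≤0.25%.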

[1] = second compound 0.1 µM, first compound 0.0316 µM
[2] = second compound 0.1 µM, first compound 0.1 µM
[3] = second compound 0.1 µM, first compound 0.316 µM
[4] = second compound 0.1 µM, first compound 1 µM
[5] = second compound 0.316 µM, first compound 0.0316 µM
[6] = second compound 0.316 µM, first compound 0.1 µM
[7] = second compound 0.316 µM, first compound 0.316 µM
[8] = second compound 0.316 µM, first compound 1 µM
[9] = second compound 1 µM, first compound 0.0316 µM
[10] = second compound 1 µM, first compound 0.1 µM
[11] = second compound 1 µM, first compound 0.316 µM
[12] = second compound 1 µM, first compound 1 µM
[13] = second compound 3.16 µM, first compound 0.0316 µM
[14] = second compound 3.16 µM, first compound 0.1 µM
[15] = second compound 3.16 µM, first compound 0.316 µM
[16] = second compound 3.16 µM, first compound 1 µM
[17] = second compound 10 µM, first compound 0.0316 µM
[18] = second compound 10 µM, first compound 0.1 µM
[19] = second compound 10 µM, first compound 0.316 µM
[20] = second compound 10 µM, first compound 1 µM
[21] = second compound 0.1 µM, first compound 0.00949 µM
[22] = second compound 0.1 µM, first compound 0.03 µM
[23] = second compound 0.1 µM, first compound 0.0949 µM
[24] = second compound 0.1 µM, first compound 0.3 µM
[25] = second compound 0.316 µM, first compound 0.00949 µM
[26] = second compound 0.316 µM, first compound 0.03 µM
[27] = second compound 0.316 µM, first compound 0.0949 µM
[28] = second compound 0.316 µM, first compound 0.3 µM
[29] = second compound 1 µM, first compound 0.00949 µM
[30] = second compound 1 µM, first compound 0.03 µM
[31] = second compound 1 µM, first compound 0.0949 µM
[32] = second compound 1 µM, first compound 0.3 µM
[33] = second compound 3.16 µM, first compound 0.00949 µM
[34] = second compound 3.16 µM, first compound 0.03 µM
[35] = second compound 3.16 µM, first compound 0.0949 µM
[36] = second compound 3.16 µM, first compound 0.3 µM
[37] = second compound 10 µM, first compound 0.00949 µM
[38] = second compound 10 µM, first compound 0.03 µM
[39] = second compound 10 µM, first compound 0.0949 µM
[40] = second compound 10 µM, first compound 0.3 µM
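Note: spheroids exposed to agents for seven days before readout.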
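Throughout, for viability, T/C: 100% = DMSO vehicle control wells as normalization base.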

Compound: CC1COCCN1c1cc(C2(S(C)(=N)=O)CC2)nc(-c2ccnc3[nH]ccc23)n1 (stereo not given) + NC1CCC(NC2CC2c2ccccc2)CC1
- IC50 (second compound 0.1 µM): 4.99 µM
- IC50 (second compound 0.316 µM): 4.8 µM
- IC50 (second compound 1 µM): 5.73 µM
- IC50 (second compound 3.16 µM): 4.93 µM
- IC50 (second compound 10 µM): 4.13 µM
- viability, T/C [1]: 107%
- viability, T/C [2]: 108%
- viability, T/C [3]: 103%
- viability, T/C [4]: 94.4%
- viability, T/C (second compound 0.1 µM, first compound 3.16 µM): 64%
- viability, T/C (second compound 0.1 µM, first compound 10 µM): 28.4%
- viability, T/C [5]: 111%
- viability, T/C [6]: 112%
- viability, T/C [7]: 94.8%
- viability, T/C [8]: 96.3%
- viability, T/C (second compound 0.316 µM, first compound 3.16 µM): 59.5%
- viability, T/C (second compound 0.316 µM, first compound 10 µM): 30%
- viability, T/C [9]: 113%
- viability, T/C [10]: 104%
- viability, T/C [11]: 99.6%
- viability, T/C [12]: 100%
- viability, T/C (second compound 1 µM, first compound 3.16 µM): 77.5%
- viability, T/C (second compound 1 µM, first compound 10 µM): 23.8%
- viability, T/C [13]: 122%
- viability, T/C [14]: 118%
- viability, T/C [15]: 117%
- viability, T/C [16]: 96.4%
- viability, T/C (second compound 3.16 µM, first compound 3.16 µM): 66%
- viability, T/C (second compound 3.16 µM, first compound 10 µM): 25.5%
- viability, T/C [17]: 131%
- viability, T/C [18]: 129%
- viability, T/C [19]: 110%
- viability, T/C [20]: 88.1%
- viability, T/C (second compound 10 µM, first compound 3.16 µM): 63.8%
- viability, T/C (second compound 10 µM, first compound 10 µM): 14.2%

Compound: CCN(c1cc(-c2ccc(CN3CCOCC3)cc2)cc(C(=O)NCc2c(C)cc(C)[nH]c2=O)c1C)C1CCOCC1 + NC1CCC(NC2CC2c2ccccc2)CC1
- IC50 (second compound 0.1 µM): > 3 µM
- IC50 (second compound 0.316 µM): > 3 µM
- IC50 (second compound 1 µM): > 3 µM
- IC50 (second compound 3.16 µM): > 3 µM
- IC50 (second compound 10 µM): > 3 µM
- viability, T/C [21]: 105%
- viability, T/C [22]: 106%
- viability, T/C [23]: 96.2%
- viability, T/C [24]: 108%
- viability, T/C (second compound 0.1 µM, first compound 0.949 µM): 119%
- viability, T/C (second compound 0.1 µM, first compound 3 µM): 128%
- viability, T/C [25]: 107%
- viability, T/C [26]: 130%
- viability, T/C [27]: 106%
- viability, T/C [28]: 112%
- viability, T/C (second compound 0.316 µM, first compound 0.949 µM): 111%
- viability, T/C (second compound 0.316 µM, first compound 3 µM): 112%
- viability, T/C [29]: 128%
- viability, T/C [30]: 116%
- viability, T/C [31]: 113%
- viability, T/C [32]: 133%
- viability, T/C (second compound 1 µM, first compound 0.949 µM): 128%
- viability, T/C (second compound 1 µM, first compound 3 µM): 127%
- viability, T/C [33]: 124%
- viability, T/C [34]: 131%
- viability, T/C [35]: 144%
- viability, T/C [36]: 138%
- viability, T/C (second compound 3.16 µM, first compound 0.949 µM): 121%
- viability, T/C (second compound 3.16 µM, first compound 3 µM): 141%
- viability, T/C [37]: 120%
- viability, T/C [38]: 131%
- viability, T/C [39]: 134%
- viability, T/C [40]: 118%
- viability, T/C (second compound 10 µM, first compound 0.949 µM): 118%
- viability, T/C (second compound 10 µM, first compound 3 µM): 105%

Compound: Nc1ncn(C2CC(O)C(CO)S2)c(=O)n1 (stereo not given) + NC1CCC(NC2CC2c2ccccc2)CC1
- IC50 (second compound 0.1 µM): > 0.3 µM
- IC50 (second compound 0.316 µM): > 0.3 µM
- IC50 (second compound 1 µM): > 0.3 µM
- IC50 (second compound 3.16 µM): > 0.3 µM
- IC50 (second compound 10 µM): > 0.3 µM
- viability, T/C (second compound 0.1 µM, first compound 0.000949 µM): 114%
- viability, T/C (second compound 0.1 µM, first compound 0.003 µM): 117%
- viability, T/C [21]: 107%
- viability, T/C [22]: 120%
- viability, T/C [23]: 113%
- viability, T/C [24]: 99.9%
- viability, T/C (second compound 0.316 µM, first compound 0.000949 µM): 124%
- viability, T/C (second compound 0.316 µM, first compound 0.003 µM): 123%
- viability, T/C [25]: 121%
- viability, T/C [26]: 113%
- viability, T/C [27]: 128%
- viability, T/C [28]: 99.8%
- viability, T/C (second compound 1 µM, first compound 0.000949 µM): 112%
- viability, T/C (second compound 1 µM, first compound 0.003 µM): 115%
- viability, T/C [29]: 118%
- viability, T/C [30]: 122%
- viability, T/C [31]: 123%
- viability, T/C [32]: 104%
- viability, T/C (second compound 3.16 µM, first compound 0.000949 µM): 121%
- viability, T/C (second compound 3.16 µM, first compound 0.003 µM): 125%
- viability, T/C [33]: 115%
- viability, T/C [34]: 121%
- viability, T/C [35]: 137%
- viability, T/C [36]: 119%
- viability, T/C (second compound 10 µM, first compound 0.000949 µM): 116%
- viability, T/C (second compound 10 µM, first compound 0.003 µM): 126%
- viability, T/C [37]: 115%
- viability, T/C [38]: 107%
- viability, T/C [39]: 113%
- viability, T/C [40]: 108%

Compound: O=C(C=Cn1cnc(-c2cc(C(F)(F)F)cc(C(F)(F)F)c2)n1)NNc1cnccn1 + NC1CCC(NC2CC2c2ccccc2)CC1
- IC50 (second compound 0.1 µM): < 0.00316 µM
- IC50 (second compound 0.316 µM): < 0.00316 µM
- IC50 (second compound 1 µM): 0.00915 µM
- IC50 (second compound 3.16 µM): 0.029 µM
- IC50 (second compound 10 µM): < 0.00316 µM
- viability, T/C (second compound 0.1 µM, first compound 0.00316 µM): 45.3%
- viability, T/C (second compound 0.1 µM, first compound 0.01 µM): 50.8%
- viability, T/C [1]: 37.8%
- viability, T/C [2]: 33%
- viability, T/C [3]: 30.6%
- viability, T/C [4]: 25.1%
- viability, T/C (second compound 0.316 µM, first compound 0.00316 µM): 47.3%
- viability, T/C (second compound 0.316 µM, first compound 0.01 µM): 47.5%
- viability, T/C [5]: 43.8%
- viability, T/C [6]: 31.8%
- viability, T/C [7]: 33%
- viability, T/C [8]: 33.9%
- viability, T/C (second compound 1 µM, first compound 0.00316 µM): 56.6%
- viability, T/C (second compound 1 µM, first compound 0.01 µM): 50.1%
- viability, T/C [9]: 44.5%
- viability, T/C [10]: 37.6%
- viability, T/C [11]: 29.7%
- viability, T/C [12]: 33.8%
- viability, T/C (second compound 3.16 µM, first compound 0.00316 µM): 58.4%
- viability, T/C (second compound 3.16 µM, first compound 0.01 µM): 57.2%
- viability, T/C [13]: 48.3%
- viability, T/C [14]: 41.1%
- viability, T/C [15]: 32.8%
- viability, T/C [16]: 30.2%
- viability, T/C (second compound 10 µM, first compound 0.00316 µM): 41.7%
- viability, T/C (second compound 10 µM, first compound 0.01 µM): 45.7%
- viability, T/C [17]: 45.7%
- viability, T/C [18]: 44.9%
- viability, T/C [19]: 37.4%
- viability, T/C [20]: 23.5%
